Structures are written as SMILES. In brackets after ≈: the same amount, converted by molar mass. Some results are limits rather than exact numbers.

In patent US4164577A, “6-(2-Acylamino-2-arylacetamido)penicillanic acids” (priority 1977, dated 1979) one finds MIC data, which are given here for six molecules.

Assay in all cases: in vitro antibacterial activity, minimum inhibitory concentration (agar dilution)
Holding throughout (type): cell-based
(In general: Agar dilution tests growth on a series of plates holding different concentrations.)

Assay [1] deals with Pseudomonas aeruginosa M-16. The settings on record: ATCC15692, 20 h, read-out: Minimum Inhibitory concentration (MIC) Pseudomonas aeruginosa M-16. The procedure:
(§1) The compounds of this invention were tested for antibacterial activity according to the following procedure.
(§2) Nutrient broth and nutrient agar were prepared according to the conventional procedure. Nutrient agar was used as a vehicle. The stock solution was prepared at 100 μg/ml of the test material in the vehicle. Two-fold dilutions were made with the vehicle and then the diluted stock solution was added to a petri dish and solidified by chilling. Test organisms were grown in the nutrient broth for 20 hours at 37° C. The hardened surface was inoculated with a loopful of the test organism solution containing 1×10^6 cells per milliliter and incubated for 20 hours at 37° C. At the end of this period, growth of the organism was observed. […] The following Table 1 summarizes the activity of representative compounds as active antibacterial agents, and compares them with the reference drug Sulbenicillin.

Assay [2] relates to Pseudomonas aeruginosa M-2008. The settings on record: ATCC15691, 20 h, read-out: Minimum Inhibitory concentration (MIC) Pseudomonas aeruginosa M-2008. The method, then: as §1, §2
In assay [3] the test system is Pseudomonas aeruginosa M-12. The settings on record: ATCC15692, 20 h, read-out: Minimum Inhibitory concentration (MIC) Pseudomonas aeruginosa M-12. The procedure: as §1, §2

Turning to `CC1(C)S[C@@H]2[C@H](NC(=O)[C@H](NC(=O)c3nc4cc(Cl)cnc4nc3O)c3ccc(O)cc3)C(=O)N2[C@H]1C(=O)O` [Compound 4], the MIC in assay [1] was determined as 3.1 µg/mL (≈ 5.41 µM); in assay [2] it was 6.2 µg/mL (≈ 10.8 µM).

On to `CC1(C)S[C@@H]2[C@H](NC(=O)[C@H](NC(=O)c3nc4cncnc4nc3O)c3ccc(O)cc3)C(=O)N2[C@H]1C(=O)O` [Compound 8], for which the MIC in assay [1] is less than 1.56 µg/mL.

`CC1(C)S[C@@H]2[C@H](NC(=O)[C@H](NC(=O)c3nc4cccnc4nc3O)c3ccc(O)cc3)C(=O)N2[C@H]1C(=O)O` [Compound 2, potassium 6-[D-2-(3-hydroxypyrido[2,3-b]pyrazine-2-carboxamido)-2-(p-hydroxyphenyl)acetamido]penicillanate]: the MIC in assay [3] is less than 1.5 µg/mL; in assay [1], 0.78 µg/mL; in assay [2] it was 3.1 µg/mL.

On to `CC1(C)S[C@@H]2[C@H](NC(=O)C(c3ccccc3)S(=O)(=O)O)C(=O)N2[C@H]1C(=O)O` (stereo partly drawn) [11 Sulbenicillin, Sulbenicillin, reference compound], for which the MIC in assay [3], in assay [1] and in assay [2] was 25 µg/mL (≈ 60.3 µM) throughout.

With `CC1(C)S[C@@H]2[C@H](NC(=O)[C@H](NC(=O)c3nc4cc(Br)cnc4nc3O)c3ccc(O)cc3)C(=O)N2[C@H]1C(=O)O` [Compound 6], the results for the MIC in assay [1] and in assay [2] were less than 1.5 µg/mL and 3.1 µg/mL (≈ 5.02 µM), respectively.

`Cc1nc2nc(O)c(C(=O)N[C@@H](C(=O)N[C@@H]3C(=O)N4[C@@H]3SC(C)(C)[C@@H]4C(=O)O)c3ccc(O)cc3)nc2cc1Br` [Compound 10]: in assay [1], the MIC was determined as 1.5 µg/mL (≈ 2.38 µM).
